Measured values taken from patent publication US20100130549A1, “PSYCHOTROPIC COMPOUNDS, COMPOSITIONS AND METHODS OF USE” (priority 2007, published 2010).

Assays:
[1] = target: T1, Serotonin (5-Hydroxytryptamine) 5-HT2C (Homo sapiens, UniProt P28335); experiment: Radioligand binding assay, 5-HT2C
T1 sequence (P28335 33-458): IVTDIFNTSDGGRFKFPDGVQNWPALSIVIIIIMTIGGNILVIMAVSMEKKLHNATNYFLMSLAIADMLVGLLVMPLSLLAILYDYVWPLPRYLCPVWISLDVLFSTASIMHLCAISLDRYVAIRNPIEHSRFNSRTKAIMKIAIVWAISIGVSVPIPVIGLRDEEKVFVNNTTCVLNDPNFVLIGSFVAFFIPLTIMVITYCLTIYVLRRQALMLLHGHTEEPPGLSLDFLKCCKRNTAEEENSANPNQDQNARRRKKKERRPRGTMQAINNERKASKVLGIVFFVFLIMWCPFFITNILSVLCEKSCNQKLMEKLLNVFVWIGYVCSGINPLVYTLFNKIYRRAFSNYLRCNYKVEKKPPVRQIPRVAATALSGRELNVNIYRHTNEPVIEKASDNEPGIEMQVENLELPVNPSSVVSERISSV
Text: (§1) . Table 1 provides data produced via a receptor binding assay and IC50 and Ki determination. […] In addition, the compound of formula (Ia) has a potent DAT inhibition, which is indicative of dopaminergic uptake inhibition and increased DA activity. In addition to the effect on SERT and DAT, the compound of formula (Ia) inhibited the transporter of Norepinephrine (NET), and several neurotransmitter's receptors like alpha2A and alpha2C receptors, alpha 1A and alphal C, 5HT2A and 5HT2C, signal histamine2 and dopamine D1. This specific profile is in line with the data on antidepressant, anxiolytic and moderate neuro-stimulation activity observed in the animal model studies.
(§2) With regard to the data provided in Table 1, the biochemical assay results are presented as the percent inhibition of specific binding or activity throughout the report. For primary assays, only the lowest concentration with a significant response judged by the assays’ criteria, is shown in this summary. […] Unless otherwise requested, primary screening in duplicate with quantitative data (e.g., IC50±SEM, Ki±SEM and nH) are shown.

[2] = target: Serotonin (5-Hydroxytryptamine) 5-HT2A (Homo sapiens, UniProt P28223); experiment: Radioligand binding assay, 5-HT2A
Sequence of Serotonin (5-Hydroxytryptamine) 5-HT2A (P28223 whole entry): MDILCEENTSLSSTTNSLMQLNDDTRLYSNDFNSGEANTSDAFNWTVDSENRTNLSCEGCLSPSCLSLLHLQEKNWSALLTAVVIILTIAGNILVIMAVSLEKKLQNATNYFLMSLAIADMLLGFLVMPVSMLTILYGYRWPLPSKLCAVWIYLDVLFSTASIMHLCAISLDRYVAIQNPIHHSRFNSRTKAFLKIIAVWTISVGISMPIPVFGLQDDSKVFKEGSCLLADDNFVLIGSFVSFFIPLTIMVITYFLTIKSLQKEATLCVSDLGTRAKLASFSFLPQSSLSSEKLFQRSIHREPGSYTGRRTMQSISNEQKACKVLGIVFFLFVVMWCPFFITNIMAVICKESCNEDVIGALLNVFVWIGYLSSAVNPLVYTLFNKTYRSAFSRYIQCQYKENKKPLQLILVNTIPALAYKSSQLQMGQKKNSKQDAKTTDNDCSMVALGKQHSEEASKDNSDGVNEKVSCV
Text: as §1, §2

Sigma σ1 = Sigma σ1 (Homo sapiens, UniProt Q99720); experiment: Radioligand binding assay, Sigma σ1
Sequence of Sigma σ1 (Q99720 whole entry): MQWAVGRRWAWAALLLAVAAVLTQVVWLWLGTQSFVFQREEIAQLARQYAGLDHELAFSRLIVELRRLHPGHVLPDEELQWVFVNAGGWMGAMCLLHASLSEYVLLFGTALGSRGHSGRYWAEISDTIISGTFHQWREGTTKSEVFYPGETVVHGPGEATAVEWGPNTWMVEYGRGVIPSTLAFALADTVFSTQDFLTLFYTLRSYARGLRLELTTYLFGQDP
Text: as §1, §2

Adrenergic α2c = target: T2, Adrenergic α2c (Homo sapiens, UniProt P18825); experiment: Radioligand binding assay, Adrenergic α2c
T2 construct: 203800
T2 sequence (P18825 1-462): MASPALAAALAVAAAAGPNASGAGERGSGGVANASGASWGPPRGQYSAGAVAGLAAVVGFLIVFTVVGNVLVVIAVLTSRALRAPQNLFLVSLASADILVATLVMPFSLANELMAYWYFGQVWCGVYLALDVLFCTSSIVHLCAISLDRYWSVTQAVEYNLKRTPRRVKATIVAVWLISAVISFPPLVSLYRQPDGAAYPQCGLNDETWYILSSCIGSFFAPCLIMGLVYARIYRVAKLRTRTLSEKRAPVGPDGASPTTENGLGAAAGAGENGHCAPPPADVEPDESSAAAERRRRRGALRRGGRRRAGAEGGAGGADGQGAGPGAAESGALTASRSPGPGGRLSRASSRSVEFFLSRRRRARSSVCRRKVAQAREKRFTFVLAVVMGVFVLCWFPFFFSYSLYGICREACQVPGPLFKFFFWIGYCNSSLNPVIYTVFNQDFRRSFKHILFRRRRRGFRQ
Text: as §1, §2

[3] = target: Serotonin (5-Hydroxytryptamine) 5-HT6 (Homo sapiens, UniProt P50406); experiment: Radioligand binding assay, 5-HT6
Sequence of Serotonin (5-Hydroxytryptamine) 5-HT6 (P50406 whole entry): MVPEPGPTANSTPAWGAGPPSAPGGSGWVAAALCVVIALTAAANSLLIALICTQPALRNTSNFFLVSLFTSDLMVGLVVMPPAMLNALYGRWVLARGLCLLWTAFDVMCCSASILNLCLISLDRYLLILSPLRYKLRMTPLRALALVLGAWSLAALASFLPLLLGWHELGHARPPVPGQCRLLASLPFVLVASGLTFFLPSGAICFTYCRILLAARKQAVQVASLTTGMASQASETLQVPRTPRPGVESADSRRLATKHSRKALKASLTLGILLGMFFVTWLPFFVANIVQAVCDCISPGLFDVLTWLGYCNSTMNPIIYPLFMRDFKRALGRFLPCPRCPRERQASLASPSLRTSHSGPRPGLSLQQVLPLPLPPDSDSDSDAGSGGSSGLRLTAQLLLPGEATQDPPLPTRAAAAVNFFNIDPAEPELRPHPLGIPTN
Text: as §1, §2

Adrenergic α1B = target: T3, Adrenergic α1B (Rattus norvegicus, UniProt P15823); experiment: Radioligand binding assay, Adrenergic α1B
T3 sequence (P15823 1-515): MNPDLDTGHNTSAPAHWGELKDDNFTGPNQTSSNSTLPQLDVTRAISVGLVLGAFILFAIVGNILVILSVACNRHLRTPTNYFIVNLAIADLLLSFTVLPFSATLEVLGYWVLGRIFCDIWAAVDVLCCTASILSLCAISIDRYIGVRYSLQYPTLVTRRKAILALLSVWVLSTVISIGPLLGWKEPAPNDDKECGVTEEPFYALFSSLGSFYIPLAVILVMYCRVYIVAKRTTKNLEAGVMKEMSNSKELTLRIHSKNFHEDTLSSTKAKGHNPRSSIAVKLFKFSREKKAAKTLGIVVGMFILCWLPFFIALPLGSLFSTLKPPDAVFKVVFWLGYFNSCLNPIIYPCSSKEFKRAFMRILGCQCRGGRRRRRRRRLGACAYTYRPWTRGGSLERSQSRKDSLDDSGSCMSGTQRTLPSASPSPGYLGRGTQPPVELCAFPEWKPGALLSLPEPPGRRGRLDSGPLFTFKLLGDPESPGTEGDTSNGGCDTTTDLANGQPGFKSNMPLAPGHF
Text: as §1, §2

BALB/c mice = experiment: Acute toxicity, ip administration; format: in vivo; settings: ip up to 30 mg/kg
Description: […]. […] The body weight of the mice was determined up to 12 days after administration of the compounds.

Work on `CN[C@H]1CC[C@@H](c2ccc(Cl)c(Cl)c2)c2ccc(C#CCCCO)cc21` [compound Ia, (1S-cis)-4-(3,4-dichlorophenyl)-7-(5-hydroxy-1-pentyn-1-yl)-1,2,3,4-tetrahydro-N-methyl-1-naphthalenamine hydroiodide] yielded an IC50 [1] of 9.16 µM, a nH [1] of 2.15 and an inhibition at 10 µM ([1]; read-out: % INH.) of 54%. The Ki ([1]; read-out: K1) was 4.8 µM, the IC50 [2] was 3.37 µM and the nH [2] was 1.06. It also gave an inhibition at 10 µM ([2]; read-out: % INH.) of 81%, a Ki ([2]; read-out: K1) of 0.965 µM and an IC50 (Sigma σ1) of 0.837 µM. The nH (Sigma σ1) was 0.627, the inhibition at 3 µM (Sigma σ1; 3 μM) was 69% and the Ki (Sigma σ1; read-out: K1) was 0.352 µM. It also gave an IC50 (Adrenergic α2c) of 1.9 µM, a nH (Adrenergic α2c) of 1.03 and an inhibition at 3 µM (Adrenergic α2c; 3 μM) of 62%. For the same compound, the Ki (Adrenergic α2c; read-out: K1) was 0.276 µM, the IC50 [3] was 2.6 µM and the nH [3] was 1.16. The inhibition at 3 µM ([3]; 3 μM) was 51%, the Ki ([3]; read-out: K1) was 1.21 µM and the IC50 (Adrenergic α1B) was 0.562 µM. For the same compound, the nH (Adrenergic α1B) was 1.08, the inhibition at 1 µM (Adrenergic α1B; 1 μM) was 63% and the Ki (Adrenergic α1B; read-out: K1) was 0.311 µM. For the same compound, the survival (BALB/c mice) was “all of the corresponding animals survived”.
